The source of these data is patent US8178506B2, “Oligomeric compounds and compositions for use in modulation of small non-coding RNAs” (Regulus Therapeutics Inc., priority 2003, dated 2012).

One series concerns T47D cells. Nature of the series: Caspase-3 activity assay (apoptosis) in T47D cells. The following applies: T47D cells, 48 hours.
For a further series, the system named is mir-15a miRNA. Kind of series: pGL3-mir-15a sensor luciferase assay in HeLa cells. It counts as cell-based, human. The following applies: pGL3-mir-15a sensor-expressing HeLa cells. The text has this:
In order to assess the ability of miRNAs to bind predicted miRNA binding sites and regulate the expression of the luciferase reporter, in some embodiments, expression systems based on the pGL3-Control (Promega Corp., Madison Wis.) reporter vector and comprising either a mir-15a, mir-21, or a mir-23b miRNA binding site were developed and used in transient transfections of HeLa cells to determine whether the endogenous mir-15a, mir-21, or mir-23b miRNAs, respectively, could repress luciferase reporter gene expression.
The pGL3-mir-15a sensor plasmid was created by cloning the sequence ([…]; SEQ ID NO: 369), complementary to the mir-15a miRNA, into the Xba site of the pGL3-Control plasmid, placing the potential miRNA-binding site in the 3′UTR of the luciferase reporter. This reporter plasmid was used to transfect HeLa cells and it was observed that the endogenous mir-15a miRNA was able to inhibit luciferase expression from the pGL3-mir-15a sensor plasmid. Thus, to further evaluate the ability of the mir-15a miRNA to bind this target site encoded by the pGL3-mir-15a sensor plasmid, and to assess the ability of oligomeric compounds to interfere with mir-15a-mediated silencing, pGL3-mir-15a sensor-expressing HeLa cells were treated with varying concentrations (3-, 10- or 30 nM) of the following oligomeric compounds: ISIS Number 327951 (SEQ ID NO: 369) is a uniform 2′-MOE compound targeting the mature mir-15a-1 miRNA. ISIS Numbers 356213 (SEQ ID NO: 878), 356215 (SEQ ID NO: 879), 356216 (SEQ ID NO: 880), 356218 (SEQ ID NO: 881), 356221 (SEQ ID NO: 882), 356227 (SEQ ID NO: 883) and 356229 (SEQ ID NO: 884) are phosphorothioate, uniform 2′-MOE oligomeric compounds designed and synthesized to target the entire length of the mir-15a pri-miRNA molecule (described in detail in Example 28, below). […] The data presented in Table 42 are the average of three trials and are presented as percent untreated control (luciferase plasmid only, not treated with oligomeric compound) luciferase expression, normalized to pRL-CMV levels.

In the next series the test system is mir-15a pri-miRNA. Nature of the series: mir-15a pri-miRNA expression in T47D cells (real-time RT-PCR). It counts as cell-based, human. The following applies: real-time RT-PCR. The text has this: The gapmer oligomeric compounds targeting the mir-15b and mir-15-a-1 mature miRNAs described above were also transfected into T47D cells according to standard procedures. In addition, uniform 2′-MOE and 2′-MOE gapmer oligomeric compounds targeting the mature mir-15a-1 and mir-15b miRNAs were also transfected into T47D cells, for analysis of their effects on mir-15a-1 and mir-15b pri-miRNA levels. The oligomeric compounds ISIS Number 327927 (SEQ ID NO: 345), a uniform 2′-MOE compound and ISIS Number 345391 (SEQ ID NO: 345), a 2′-MOE 5-10-7 gapmer compound, both target mir-15b. The oligomeric compounds ISIS Number 327951 (SEQ ID NO: 369), a uniform 2′-MOE compound, and ISIS Number 345411 (SEQ ID NO: 369), a 2′-MOE 5-10-7 gapmer compound, both target mir-15a-1. Oligomeric compounds ISIS Number 129686 ([…]; SEQ ID NO: 901), and ISIS Number 129691 ([…]; SEQ ID NO:902), both universal scrambled controls, as well as ISIS Number 116847 ([…]; SEQ ID NO: 844) targeting an unrelated gene, PTEN, were used as negative controls. ISIS Numbers 129686, 129691, and 116847 are phosphorothiated 2′-MOE 5-10-5 gapmers, and all cytosines are 5-methylcytosines. T47D cells (seeded in 12-well plates) were treated with these oligomeric compounds, and RNA was isolated from the treated cells by lysing in 1 mL TRIZOL™ (Invitrogen) and total RNA was prepared using the manufacturer's recommended protocols. To assess the effects of these compounds on expression of the mir-15a or mir-15b pri-miRNA molecules, real-time RT-PCR analysis was performed using either the primer/probe set specific for the mir-15a pri-miRNA molecule described above, or a primer probe set specific for the mir-15b pri-miRNA molecule: ISIS 339320 ([…]; SEQ ID NO: 903) was used as the forward primer for the mir-15b pri-miRNA, ISIS 339321 ([…] ACTGT; SEQ ID NO: 904) was used as the reverse primer for the mir-15b pri-miRNA, and ISIS 339322 ([…]; SEQ ID NO: 905) was used as the probe. Total RNA was quantified using RiboGreen™ RNA quantification reagent (Molecular Probes, Inc. Eugene, Oreg.), expression levels observed for each target were normalized to 5.8S rRNA, and values are expressed relative to the untreated control. Inhibition of expression of the mir15a or mir-15b pri-miRNA molecules upon treatment with these oligomeric compounds is was assessed and expressed as a percentage of RNA levels in untreated control cells.
Using the real-time RT-PCR methods described, the expression levels of the mir-15a pri-miRNA were compared in T47D cells treated with the nested series of uniform 2′-MOE oligomeric compounds, targeting and spanning the entire length of the mir-15a pri-miRNA. The region encompassing the mir-15a primary transcript (the complement of nucleotides 31603159 to 31603468 of GenBank Accession number NT—024524.13; AAATAATTATG […]) is incorporated herein as SEQ ID NO: 906. ISIS Number 356215 (SEQ ID NO: 879) targets a region flanking and immediately 5′ to the predicted 5′ Drosha cleavage site in the mir-15a pri-miRNA. ISIS Number 356218 (SEQ ID NO: 881) targets aregion in the loop of the mir-15a pri-miRNA. ISIS 356227 (SEQ ID NO: 883) targets a region flanking and immediately 3′ to the predicted 3′ Drosha cleavage site in the mir-15a pri-miRNA. Additionally, oligomeric compound ISIS 327951 (SEQ ID NO: 369), a uniform 2′-MOE compound targeting the mature mir-15a-1 miRNA, was tested for comparison. Oligomeric compounds ISIS 327901 (SEQ ID NO: 319) targeting the mature mir-143 miRNA; ISIS 129690, ([…]; SEQ ID NO: 907), a phosphorothioate 5-10-5 MOE gapmer used as a universal scrambled control; and ISIS 116847 ([…]; SEQ ID NO: 844), a uniform 5-10-52′-MOE gapmer targeting an unrelated gene, PTEN, were used as negative controls. Using the transfection methods previously described, T47D cells were treated with 100 nM of each of these oligomeric compounds. […]
In general terms: Real-time PCR tracks product formation cycle by cycle.

In the oligonucleotide strings, read from the 5' end, every base follows the letter of its sugar. An asterisk marks phosphorothioate; unmarked linkages are phosphodiester. Other units and linkages are bracketed, terminal groups are in braces. A string of capitals states the bases alone. e = 2'-O-(2-methoxyethyl) (MOE); [5mC] = 5-methylcytosine; d = 2'-deoxy (DNA)

In the case of “328691 (e[5mC]*e[5mC]*e[5mC]*e[5mC]*eA*dT*d[5mC]*dT*dT*dA*dG*d[5mC]*dA*dT*d[5mC]*eT*eA*eA*eG*eG) [compound 328691]”, the “Fold Increase over UTC (caspase activity)” value in the series with T47D cells (200 nM, relative to untreated control) came out at 0.9.
On to “327901 (antisense eT*eG*eA*eG*e[5mC]*eT*eA*e[5mC]*eA*eG*eT*eG*e[5mC]*eT*eT*e[5mC]*eA*eT*e[5mC]*eT*e[5mC]*eA) [compound 327901]”, for which the Relative luciferase activity in the series with mir-15a miRNA (3 nM) worked out at 83.6; with mir-15a miRNA (10 nM), 96.6; with mir-15a miRNA (30 nM), 88.2. Moreover, the “mir-15a pri-miRNA expression % UTC” value with mir-15a pri-miRNA came to 132 % UTC.
The corresponding values for “327951 (antisense e[5mC]*eA*e[5mC]*eA*eA*eA*e[5mC]*e[5mC]*eA*eT*eT*eA*eT*eG*eT*eG*e[5mC]*eT*eG*e[5mC]*eT*eA) [compound 327951]” are 151.0, 207.6, 137.1 and 713 % UTC.
As to “342673 (antisense eA*eG*eA*e[5mC]*eT*eA*eG*e[5mC]*eG*eG*eT*eA*eT*e[5mC]*eT*eT*eT*eA*eT*e[5mC]*e[5mC]*e[5mC]) [compound 342673]”, the Relative luciferase activity in the series on mir-15a miRNA (3 nM) is on record as 104.5; in the series with mir-15a miRNA (10 nM), 82.6; with mir-15a miRNA (30 nM), 85.7.
Regarding “328382 (e[5mC]*eA*eG*eA*e[5mC]*dT*d[5mC]*d[5mC]*d[5mC]*dA*dA*d[5mC]*dT*dG*dA*e[5mC]*e[5mC]*eA*eG*eA) [compound 328382]”, the “Fold Increase over UTC (caspase-3 activity, apoptosis)” value with T47D cells (200 nM oligomeric compound, experiment of Table 10) came to 0.9 fold.
